US20250136581A1, “SUBSTITUTED TRIAZOLE DERIVATIVE, PREPARATION METHOD THEREFOR, PHARMACEUTICAL COMPOSITION THEREOF, AND USE THEREOF” (SHANGHAI SIMR BIOTECHNOLOGY CO., LTD., priority 2021, published 2025)

How the values were obtained:
human α2β3γ2 receptors = human α2β3γ2 receptors (Homo sapiens (Human), UniProt P18507+P47869); experiment: 3H-flunitrazepam competition binding, human α2β3γ2 GABAA receptor; conditions: HEK293 cell membranes, 1 nM 3H-flunitrazepam; read-out: Ki α2
Protocol: (§1) The affinity of the compound to each subtype of GABAA receptor was determined by competing for the binding of ^3H-flunitrazepam to HEK293 cells stably expressing human α1β3γ2, α2β3γ2, α3β3γ2, and α5β3γ2 receptors.
(§2) The cells were suspended in 50 mM Tris-HCl buffer (pH=7.4), homogenized 10 times on ice with a homogenizer for 20 seconds, and centrifuged at 1000 g for 10 minutes at 4° C. The supernatant was collected, and the above steps were repeated. The supernatant was centrifuged at 4° C. (33800 g; Thermo, rotor: A27-8×50) for 60 minutes, and the precipitate was resuspended in Tris buffer (50 mM Tris-HCl, 10 mM MgCl2, 0.5 mM EDTA, 10% glycerol). Protein was measured (BCA method, Pierce), and 1 mL aliquots were prepared and stored at −80° C.
(§3) The radioligand competition binding assay was performed in a 200 μL system (96-well plate) containing 100 μL of cell membrane. The concentration of ^3H-flunitrazepam was 1 nM and the concentration of the test compound was in the range of […]. Flumazenil was used as a control. 1 μL of 2 mM flumazenil (final concentration […]) was added to the low signal control well (Low control, LC), and 1 μL of DMSO was added to the high signal control well (High control, HC). The final concentration of target membrane protein was […]. All test compound sample storage solutions were 10 mM. The working concentration of the samples was to dilute all the samples to 0.2 mM with DMSO, followed by 4-fold serial gradient dilutions for a total of 8 concentration gradients. The 96-well plate was sealed with a sealing film, and then incubated on a shaker at room temperature for 1 hour. At the same time, the GF/C filter plate was soaked in soaking buffer (0.3% PEI, stored at 4° C.) for at least 0.5 hours. After the binding incubation was completed, the cells were collected onto a GF/C filter plate using a cell harvester. The plate was washed four times with washing buffer (50 mM Tris-HCl, pH 7.4, stored at 4° C.). After drying in a 50° C. oven for 1 hour, the bottom of the dried GF/C filter plate was sealed. The residual radioactivity on the filter membrane was detected using liquid scintillation counting. 50 μL of scintillation fluid was added to each well, and the plate was sealed. The readings were taken using a Microbeta2. The inhibitory activity of the test sample on the binding of ^3H-flunitrazepam to GABAA receptor membrane proteins was calculated, and the IC50 of each test sample was calculated by dose-effect curve fitting (GraphPad Prism 5 software), and the Ki of the sample was calculated from the IC50, thus evaluating the binding ability of the sample to the various subtypes of GABAA receptors.

[1] = target: human α5β3γ2 receptors (α5-GABAA receptor) (Homo sapiens (Human), UniProt P18507+P31644); experiment: 3H-flunitrazepam competition binding, human α5β3γ2 GABAA receptor; conditions: HEK293 cell membranes, 1 nM 3H-flunitrazepam; read-out: α5-GABAAR Ki
Summary of the method: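 Radioligand displacement of 1 nM 3H-flunitrazepam from membranes of HEK293 lines stably expressing the human subtypes, 1 h at room temperature, compound in 8-point 4-fold series. Bound label on GF/C filters counted by scintillation; Ki derived from fitted IC50, with flumazenil as low control.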

[2] = target: α5-GABAA receptor (α5, β3, γ2 subunits) (Homo sapiens (Human), UniProt P18507+P31644); experiment: Whole cell patch clamp, inverse agonist efficacy in HEK293 cells expressing α5-GABAA receptor; type: cell-based; conditions: HEK293, drug 100 nM, GABA 0.05 μM, −60 mV; read-out: Compound inverse agonist efficacy %
Summary of the method: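 Compounds screened at 100 nM against current induced by 0.05 μM GABA in monoclonal HEK293 cells stably expressing α5β3γ2 GABAA receptors. Recording by whole-cell voltage clamp (−60 mV, pH 7.4 bath, CsCl pipette); efficacy calculated from leak-corrected currents before and after drug.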

human α1β3γ2 receptors = human α1β3γ2 receptors (Homo sapiens (Human), UniProt P14867+P18507); experiment: 3H-flunitrazepam competition binding, human α1β3γ2 GABAA receptor; conditions: HEK293 cell membranes, 1 nM 3H-flunitrazepam; read-out: Ki α1
Protocol: as §1, §2, §3

human α3β3γ2 receptors = human α3β3γ2 receptors (Homo sapiens (Human), UniProt P18507+P34903); experiment: 3H-flunitrazepam competition binding, human α3β3γ2 GABAA receptor; conditions: HEK293 cell membranes, 1 nM 3H-flunitrazepam; read-out: Ki α3
Protocol: as §1, §2, §3

Ki (human α2β3γ2 receptors)	Ki [1]	inhibition at 0.1 µM [2]	Ki (human α1β3γ2 receptors)	Ki (human α3β3γ2 receptors)	SMILES
301 nM	2.87 nM	45.3%	832 nM	173 nM	Cc1nnn(-c2ccc(F)cc2)c1COc1ccc(N2CCNC(=O)C2)nn1 [Example 76, 4-(6-((1-(4-Fluorophenyl)-4-methyl-1H-1,2,3-triazol-5-yl)methoxy)pyridazin-3-yl)piperazin-2-one]
56.4 nM	0.39 nM	51.6%	178 nM	27.5 nM	Cc1nnn(-c2ccc(C(F)F)cc2)c1COc1ccc(N2CCN3CCNC(=O)[C@H]3C2)nn1 [Example 55, (R)-8-(6-((1-(4-(Difluoromethyl)phenyl)-4-methyl-1H-1,2,3-triazol-5-yl)methoxy)pyridazin-3-yl)hexahydro-2H-pyrazino[1,2-a]pyrazin-1(6H)-one]
117 nM	2.5 nM	42.6%	445 nM	56.2 nM	Cc1nnn(-c2ccc(C(F)F)cc2)c1COc1ccc(N2CCN3CCN(C4CC4)C(=O)[C@@H]3C2)nn1 [Example 148, (S)-2-Cyclopropyl-8-(6-((1-(4-(difluoromethyl)phenyl)-4-methyl-1H-1,2,3-triazol-5-yl)methoxy)pyridazin-3-yl)hexahydro-2H-pyrazino[1,2-a]pyrazin-1(6H)-one]
26.2 nM	1 nM		122 nM	17 nM	Cc1nnn(-c2ccc(C(F)F)cc2)c1COc1ccc(N2CC(=O)NC(C)(C)C2)nn1 [Example 7, 4-(6-((1-(4-(Difluoromethyl)phenyl)-4-methyl-1H-1,2,3-triazol-5-yl)methoxy)pyridazin-3-yl)-6,6-dimethylpiperazin-2-one]
22.2 nM	0.89 nM	40.4%	80.5 nM	17 nM	Cc1nnn(-c2ccc(C(F)F)cc2)c1COc1ccc(N2CC(=O)NC3(CC3)C2)nn1 [Example 8, 7-(6-((1-(4-(Difluoromethyl)phenyl)-4-methyl-1H-1,2,3-triazol-5-yl)methoxy)pyridazin-3-yl)-4,7-diazaspiro[2.5]octan-5-one]
168 nM	9.75 nM	56.3%	911 nM	195 nM	Cc1ccc(-n2nnc(C)c2COc2ccc(N3CCN4CCNC(=O)[C@@H]4C3)nn2)cc1 [Example 129, (S)-8-(6-((4-Methyl-1-(p-tolyl)-1H-1,2,3-triazol-5-yl)methoxy)pyridazin-3-yl)octahydro-1H-pyrazino[1,2-a]pyrazin-1-one]
107 nM	3.65 nM	59.1%	333 nM	135 nM	Cc1nnn(-c2ccc(C(F)F)cc2)c1COc1ccc(N2CCN[C@H](C(=O)O)C2)nn1 [Example 27, (S)-4-(6-((1-(4-(Difluoromethyl)phenyl)-4-methyl-1H-1,2,3-triazol-5-yl)methoxy)pyridazin-3-yl)piperazine-2-carboxylic acid]
13.6 nM	3.73 nM	44.1%	21.9 nM		Cc1nnn(-c2ccc(C(F)F)cc2)c1COc1ccc(N2CCOC2=O)nn1 [Example 23, 3-(6-((1-(4-(Difluoromethyl)phenyl)-4-methyl-1H-1,2,3-triazol-5-yl)methoxy)pyridazin-3-yl)oxazolidin-2-one]
149 nM	2.46 nM	48.7%	266 nM	67.3 nM	Cc1nnn(-c2ccc(C(F)F)cc2)c1COc1ccc(N2CCN3c4ccccc4NC(=O)[C@@H]3C2)nn1 [Example 122, (S)-3-(6-((1-(4-(Difluoromethyl)phenyl)-4-methyl-1H-1,2,3-triazol-5-yl)methoxy)pyridazin-3-yl)-2,trans-3,4,4a-tetrahydro-1H-pyrazino[1,2-a]quinoxalin-5(6H)-one]
38.6 nM	2.69 nM	48.4%	87 nM		Cc1nnn(-c2ccc(C(F)F)cc2)c1COc1ccc(N2CCN(C)C(=O)C2)cn1 [Example 22, 4-(6-((1-(4-(Difluoromethyl)phenyl)-4-methyl-1H-1,2,3-triazol-5-yl)methoxy)pyridin-3-yl)-1-methylpiperazin-2-one]
12.9 nM	0.96 nM	54.5%	58.1 nM	16.8 nM	Cc1nnn(-c2ccc(C(F)F)cc2)c1COc1ccc(N2CC(=O)NC(=O)C2)nn1 [Example 5, 4-(6-((1-(4-(Difluoromethyl)phenyl)-4-methyl-1H-1,2,3-triazol-5-yl)methoxy)pyridazin-3-yl)piperazine-2,6-dione]
23.7 nM	2.08 nM	55%	400 nM	36.7 nM	Cn1nnc(-c2ccc(C(F)F)cc2)c1COc1ccc(N2CCNC(=O)C2)nn1 [Example 127, 4-(6-((4-(4-(Difluoromethyl)phenyl)-1-methyl-1H-1,2,3-triazol-5-yl)methoxy)pyridazin-3-yl)piperazin-2-one]
19.8 nM	2.15 nM	58.8%	145 nM	28.6 nM	Cc1nnn(-c2ccc(C(F)F)cc2)c1COc1ccc(N2CCNC(=O)C2)nn1 [Example 2, 4-(6-((1-(4-(Difluoromethyl)phenyl)-4-methyl-1H-1,2,3-triazol-5-yl)methoxy)pyridazin-3-yl)piperazin-2-one]
16.8 nM	0.55 nM	50.8%	80.6 nM	14.1 nM	Cc1nnn(-c2ccc(C(F)F)cc2)c1COc1ccc(N2CC(=O)N3CCOC[C@H]3C2)nn1 [Example 173, (R)-8-(6-((1-(4-(Difluoromethyl)phenyl)-4-methyl-1H-1,2,3-triazol-5-yl)methoxy)pyridazin-3-yl)hexahydropyrazino[2,1-c][1,4]oxazin-6(1H)-one]
10.4 nM	0.52 nM	53.7%	15.8 nM	7.34 nM	Cc1nnn(-c2ccc(C(F)F)cc2)c1COc1ccc(N2CCNC2=O)nn1 [Example 19, 1-(6-((1-(4-(Difluoromethyl)phenyl)-4-methyl-1H-1,2,3-triazol-5-yl)methoxy)pyridazin-3-yl)imidazolidin-2-one]
17 nM	7.72 nM		19.3 nM		Cc1nnn(-c2ccc(C(F)F)cc2)c1COc1ccc(N2CCN(C)C2=O)nn1 [Example 24, 1-(6-((1-(4-(Difluoromethyl)phenyl)-4-methyl-1H-1,2,3-triazol-5-yl)methoxy)pyridazin-3-yl)-3-methylimidazolidin-2-one]

SMILES	Ki (human α2β3γ2 receptors)	Ki [1]	inhibition at 0.1 µM [2]	Ki (human α1β3γ2 receptors)	Ki (human α3β3γ2 receptors)
Cc1nnn(-c2ccc(C(F)F)cc2)c1COc1ccc(N2CCN(CCN3CCOCC3)C(=O)C2)nn1 [Example 95, 4-(6-((1-(4-(Difluoromethyl)phenyl)-4-methyl-1H-1,2,3-triazol-5-yl)methoxy)pyridazin-3-yl)-1-(2-morpholinoethyl)piperazin-2-one]		0.67 nM	51.9%	6.23 nM	
Cc1nnn(-c2ccc(C(F)F)cc2)c1COc1ccc(N2CCN(CCN3CCCC3)C(=O)C2)nn1 [Example 61, 4-(6-((1-(4-(Difluoromethyl)phenyl)-4-methyl-1H-1,2,3-triazol-5-yl)methoxy)pyridazin-3-yl)-1-(2-(pyrrolidin-1-yl)ethyl)piperazin-2-one]	26 nM	2.12 nM	49%	126 nM	13.1 nM
